# PMC6588697, “Lugdunin amplifies innate immune responses in the skin in synergy with host- and microbiota-derived factors” (Nature Communications, 2019)
# Values joined by “and” are separate entries in the source; they are usually repeats but may differ in a detail not shown here. Equal values may be shown once.
# Tested on: PBMCs
# Assay: Cytokine release into PBMC supernatant (LEGENDplex / ELISA)
# Format: cell-based, human
# Details: 5 h, lugdunin 2 µM or Pam2Cys 100 ng/mL, two technical replicates, Fig 1f
# Protocol: Fig. 1 Lugdunin sensitizes epithelial cells for innate immune defense. a Primary human keratinocytes (PHKs) were pretreated with S. epidermidis conditioned medium (CM), indicated lugdunin concentrations, or the combination of both for 20 h. Subsequently, cells were infected with S. aureus for 1.5 h followed by cell lysis and determination of colony-forming units (CFUs). Shown is one representative experiment of three independent experiments with six technical replicates ± s.e.m. n.s., not significant. b Dorsal skin of mice was pretreated with S. epidermidis CM, 1.5 µg lugdunin alone or in combination with S. epidermidis CM for 24 h. Subsequently, S. aureus CFUs were determined. Horizontal lines represent the mean of each group ± s.e.m. c PHKs were treated with 2 μM lugdunin or with S. epidermidis CM alone or in combination for 20 h and subsequently expression of indicated antimicrobial peptides (AMPs) (respective protein names in brackets) was analyzed and normalized to actin. Shown is one representative experiment of three independent experiments with two technical replicates ± s.e.m. d PHKs were treated with 2 µM lugdunin or 100 ng/mL Pam2Cys for 5 h and subsequently the concentration of indicated cytokines in the supernatant was analyzed by LEGENDplex^TM (BioLegend). […]
substance,measurement,value
Lugdunin,CXCL8 concentration in supernatant,231.761 and 233.451
